Source: ChEMBL document CHEMBL1141900, “Synthesis and antibacterial activity of C2-fluoro, C6-carbamate ketolides, and their C9-oximes” (2005)

How the values were obtained:
Mus musculus [1] = assay: Effective dose required to inhibit Staphylococcus aureus in mouse was determined after peroral administration of the compound; (8.1- 14); type: functional; conditions: po
Mus musculus [2] = assay: Effective dose required to inhibit Staphylococcus aureus in mouse was determined after sub cutaneous administration (0.5-1.4); type: functional

CC[C@H]1OC(=O)C(C)C(=O)[C@H](C)[C@@H](O[C@@H]2O[C@H](C)C[C@H](N(C)C)[C@H]2O)[C@](C)(OC(=O)NC/C=C/c2ccc(-c3ncccn3)cc2)C[C@@H](C)C(=O)[C@H](C)[C@H]2NC(=O)O[C@@]21C (some centres not stated)
ED50 (Mus musculus [1]): 10 mg/kg | ED50 (Mus musculus [2]): 1 mg/kg
